# Experimental data from patent US9814761B2, “Compositions, methods and assays comprising amylin or amlyin analogs for abeta-peptide mediated disorders” (TRUSTEES OF BOSTON UNIVERSITY, priority 2012, dated 2017).
# Entries after “also recorded” stand apart in the source; their conditions may differ.
# How the values were obtained:
# serum Aβ1-40 and Aβ1-42 [1] = assay: amylin challenge test: i.p. injection, serum Aβ1-40 and Aβ1-42 by ELISA, Tg2576 mice; type: in vivo; details: 5 minutes
# Procedure: (§1) TgAPP2576 mice (n=5) and control mice (n=5) were used. Intraperitoneal injection of amylin (20 mg/kg) was performed, and blood was drawn and collected at pre-injection, after injection at 5 minutes, 1 hr and 24 hrs. Serum Aβ1-40 and Aβ1-42 were measured using ELISA assay. The results of serum Aβ1-40 and Aβ1-42 for each individual mouse are shown. This experiment has been repeated twice for each mouse and similar results were obtained.
# (§2) As shown at FIGS. 3A-3E, amylin injection removes Aβ from the brain into blood in APP transgenic mice. Both the Tg2576 and wild type (WT) mice were used for the amylin challenge test. FIGS. 3A-3B. Amylin (20 mg/kg) was intraperitoneally injected (i.p), and blood was drawn and collected at the time points of pre-injection (the control n=7; Tg2576 n=11), after injection 5 minutes (the control n=7; Tg2576 n=6), 1 hr (the control n=7; Tg2576 n=10) and 24 hrs (the control n=7; Tg2576 n=11). Serum Aβ1-40 and Aβ1-42 were measured by using the ELISA assays. FIGS. 3C-3E. The levels of serum Aβ1-40 and Aβ1-42 at pre-injection of amylin were treated as 1 s, and the relative fold increase after amylin injection at each time point was shown and compared with the pre-injection level by using two-way ANOVA. ***p<0.01; **p<0.05 and *p<0.10.
# (§3) FIGS. 6A-6D depict amylin injection and serum Aβ in mice. Both control mice (wild type) and Tg2576 mice were used for the amylin injection test. Amylin (20 mcg/kg) was intraperitoneally injected (i.p), and blood was drawn at the following time points: at baseline or pre-injection (controls n=7; Tg2576 n=11), at 5 minutes (controls n=7; Tg2576 n=6), at 1 hr (controls n=7; Tg2576 n=10) and at 24 hrs (controls n=7; Tg2576 n=11) post injection. Serum Aβ1-40 and Aβ1-42 were measured by using the ELISA assays. The levels of serum Aβ1-40 and Aβ1-42 at pre-injection of amylin were treated as 1 s, and the relative fold increase after amylin injection at each time point was shown and compared with the pre-injection level by using a two-way ANOVA. ***p<0.01; **p<0.05 and *p<0.10.
# (§4) Validation: We used the APP transgenic mice (Tg2576) to conduct amylin challenge test. Tg2576 mice have Aβ deposits in the brain like the AD pathology. After intraperitoneal injection of amylin (20 mg/kg), Tg2576 mice (n=5) presented with the increase of serum Aβ40 and Aβ42 at 5 minutes, 1 hr and 24 hrs compared to the pre-injection levels of serum Aβ40 and Aβ42.
# serum Aβ1-40 and Aβ1-42 [2] = assay: amylin challenge test, serum Aβ, 5XFAD mice; type: in vivo
# Excerpt: The higher the levels of Aβ and the number of amyloid plaques in the brain, the higher fold of serum Aβ was increased after the peripheral amylin challenge.
# serum Aβ1-40 and Aβ1-42 [3] = assay: amylin challenge test: i.p. injection, serum Aβ1-40 and Aβ1-42 by ELISA, control (wild type) mice; type: in vivo
# Procedure: as §1, §2, §3
# FIG. 7 depicts results of i.p injection of pramlintide, an analog of amylin, into one Tg2576 mouse (A1) and two wild type mice (N1 and N2) and comparison of their serum Aβ40 level before and after the injection.
# as §4
# 5XFAD mice [4] = assay: Y-water Maze test after long-term amylin treatment; type: in vivo
# Procedure: 5XFAD mice were treated with either i.p amylin or saline for 8 weeks followed by Y-water maze test. The average latency of recognizing the object after the training was calculated for each group (n=10) and statistical significance for the comparison is shown.
# mouse models = assay: daily dosing in mouse models, memory functions; type: in vivo, mice
# 5XFAD mice [5] = assay: Y Maze Spontaneous Alternation test after long-term amylin treatment; type: in vivo; details: 5XFAD mice aged 2 months; amylin 20 mcg/kg i.p. daily for 10 weeks vs. saline; n=8
# Procedure: Since amylin can enhance the removal of Aβ out of the brain into blood, it was tested whether amylin and its analogs can be a treatment for AD. Thus, we treated 5XFAD mice aged 2 months old with i.p injection of amylin (20 mcg/kg) vs. saline (n=8 in each group) daily for 10 weeks, and then conducted Y Maze Spontaneous Alternation test for measuring the willingness of mice to explore new environments.
# [6] = system: Aβ monomers and Aβ oligomers in the brain; assay: Aβ in the brain after amylin treatment, western blots and ELISA assays; type: in vivo; details: 5XFAD mice; amylin treatment compared to saline
# Excerpt: Changes of Aβ in the brain were examined after the amylin treatment in 5XFAD mice using both western blots and ELISA assays. […] Thus, without wishing to be bound or limited by theory, the benefits of memory improvement from amylin treatment is mediated, in part, by 1) removing Aβ from the AD brain into blood and 2) reducing the amount of Aβ oligomers in the brain.
# [7] = system: Aβ1-40 and Aβ1-42 in blood; assay: amylin challenge test, blood Aβ, APP Dutch mutation mouse line; type: in vivo, APP mouse line which carries the APP Dutch mutation
# [8] = Banks and Kastin, 1998; cited from earlier work
# [9] = Tg2576 mice (n=5), amylin 20 mg/kg intraperitoneal, 1 hr and 24 hrs
# [10] = Tg2576 mice, single amylin injection 20 mcg/kg i.p., 1 hr, 24 hrs
# [11] = control mice (n=5), amylin 20 mg/kg intraperitoneal
# [12] = control mice (wild type), single amylin injection 20 mcg/kg i.p.
substance,measurement,setting,value
amylin (KCNTATCATQRLANFLVHSSNNFGAILSSTNVGSNTY; listed as Homo sapiens),serum Aβ40 compared to the pre-injection level,serum Aβ1-40 and Aβ1-42 [1]; [9],increase
same,serum Aβ42 compared to the pre-injection level,serum Aβ1-40 and Aβ1-42 [1]; [9],increase
same,serum Aβ40 compared to the pre-injection level,serum Aβ1-40 and Aβ1-42 [1]; [10],surges
same,serum Aβ42 compared to the pre-injection level,serum Aβ1-40 and Aβ1-42 [1]; [10],surges
same,Aβ1-42 in serum,"serum Aβ1-40 and Aβ1-42 [2]; 5XFAD mice aged 3 months, i.p. injection of amylin",increased level
same,serum Aβ levels after peripheral amylin injection,serum Aβ1-40 and Aβ1-42 [2]; different aged 5XFAD mice,increase of serum Aβ levels reflecting the amounts of Aβ in the brains
same,serum Aβ40 compared to the pre-injection level,serum Aβ1-40 and Aβ1-42 [3]; [11],did not have these surges
same,serum Aβ42 compared to the pre-injection level,serum Aβ1-40 and Aβ1-42 [3]; [11],did not have these surges
same,serum Aβ40 compared to the pre-injection level,serum Aβ1-40 and Aβ1-42 [3]; [12],"none of the control mice (wild type), had surges"
same,serum Aβ42 compared to the pre-injection level,serum Aβ1-40 and Aβ1-42 [3]; [12],"none of the control mice (wild type), had surges"
same,"Y-water maze, average latency of recognizing the object after the training","5XFAD mice [4]; 5XFAD mice, i.p. amylin or saline for 8 weeks, n=10",improves; also recorded: improved memory impairment
same,time for acquisition (escaping onto the platform),"5XFAD mice [4]; APP transgenic mice, long-term amylin treatment vs placebo",significantly reduced
same,memory retention: time to find the platform,"5XFAD mice [4]; APP transgenic mice, long-term amylin treatment vs placebo, at 30 minutes and at 3 days, p<0.02",shortening the time to find the platform
same,memory functions / cognition,mouse models,increased memory functions
same,% alternation rate,5XFAD mice [5],significantly increased
same,amount of Aβ monomers in the brain,[6],did not change
same,amount of Aβ oligomers in the brain,[6],significantly reduced
same,Aβ1-40 in blood,[7],surge
same,passage through the brain blood barrier (BBB) into the brain,[8],freely passes through the brain blood barrier (BBB)
